Reference: patent US20130203718A1 (priority 2010, published 2013)

Tests used:
[1] = biological target: T1, hPRB and NCoR (Homo sapiens, UniProt P06401); assay: Mammalian two hybrid assay, recruitment of co-repressor NCoR by hPRB; assay type: cell-based; conditions: HEK293T, FIGS. 12 and 14
T1 construct: expressed in transfected cells; host or cells: HEK 293T
T1 sequence (P06401 1-933): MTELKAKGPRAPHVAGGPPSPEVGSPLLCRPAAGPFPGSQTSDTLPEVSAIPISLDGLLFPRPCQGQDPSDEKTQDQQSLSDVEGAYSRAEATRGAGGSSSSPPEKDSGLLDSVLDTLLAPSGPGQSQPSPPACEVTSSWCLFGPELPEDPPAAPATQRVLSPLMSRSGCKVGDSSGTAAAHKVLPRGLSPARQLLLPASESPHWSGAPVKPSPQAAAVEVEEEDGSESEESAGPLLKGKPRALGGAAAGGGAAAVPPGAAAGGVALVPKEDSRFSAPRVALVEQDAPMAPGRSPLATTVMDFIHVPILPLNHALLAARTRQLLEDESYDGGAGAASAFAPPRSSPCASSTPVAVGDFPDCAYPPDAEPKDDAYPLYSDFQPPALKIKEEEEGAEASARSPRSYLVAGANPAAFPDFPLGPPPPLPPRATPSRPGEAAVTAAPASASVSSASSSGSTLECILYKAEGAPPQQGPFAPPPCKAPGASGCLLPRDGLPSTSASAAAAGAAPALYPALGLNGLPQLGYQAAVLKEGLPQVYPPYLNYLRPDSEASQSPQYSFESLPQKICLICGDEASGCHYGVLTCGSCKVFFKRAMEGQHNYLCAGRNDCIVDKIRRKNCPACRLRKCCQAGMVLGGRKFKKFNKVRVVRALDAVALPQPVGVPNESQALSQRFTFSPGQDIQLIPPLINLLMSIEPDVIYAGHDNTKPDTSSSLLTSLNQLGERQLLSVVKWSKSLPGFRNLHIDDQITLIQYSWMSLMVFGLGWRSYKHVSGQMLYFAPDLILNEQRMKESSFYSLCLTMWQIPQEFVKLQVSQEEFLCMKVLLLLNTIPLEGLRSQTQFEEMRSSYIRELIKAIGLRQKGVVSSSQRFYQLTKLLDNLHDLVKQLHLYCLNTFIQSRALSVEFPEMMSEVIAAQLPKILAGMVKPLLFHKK
Method: (§1) Mammalian Two Hybrid Assays.
(§2) To investigate whether hPR was able to recruit transcriptional corepressors upon APRn binding, two hybrid assays have been performed in HEK 293T cells. Cell transfection were carried out according to the protocol used for the PR transactivation assays, with 1 μg of pGAL4-SMRT or pGAL4-NcoR, 2.5 μg of the PR expression vector pV16-PR and 5 μg of the reporter pG5-luc. The plasmid pGAL4-SMRT and pGAL4-NcoR, provided by P. Balaguer, encode the fusion protein between the GAL4 DNA-binding domain (GAL4DBD) and the receptor interacting domain (RID) of the corepressor […], respectively. The expression vector pV16PR encodes the VP16 activation domain of herpes simplex virus fused to the entire hPR and pG5-luc, provided by P. Fuller, encodes the luciferase gene driven by a GAL4-responsive promoter. […] Cell transfection were carried out according to the PR transactivation assays, by using 2 μg of pM-TIF2/Nter-RID or […], 2 μg of the expression vector pV16PR and 5 μg of the reporter pG5luc. The plasmids pM-TIF2/Nter-RID encodes the fusion proteins between the GAL4 DBD and the 1-867 TIF2 sequence corresponding to the Nter and RID domains. The plasmids pMTIF2-Nter encodes the fusion proteins between the GAL4 DBD and the 1-623 TIF2 sequence corresponding to the Nter domain. After 16 h incubation, the transfected cells were washed with PBS containing 2.5 mM EDTA, trypsinized and replated in 24-well plates. […] Cells were lysed and the luciferase and activities were quantified by using a Mithras reader microplates (Berthold).
(§3) Both agonist- and antagonist-bound PR regulate gene transcription with the assistance of transcriptional co-repressors (NCoR, SMRT) or co-activators (namely, TIF-2). To characterize the mechanism by which APRn inactivate hPRB, the capacity of hPRB to recruit transcriptional co-regulators upon APRn binding has been evaluated. […]

[2] = biological target: T2, hPRB and SMRT (Homo sapiens, UniProt P06401); assay: Mammalian two hybrid assay, recruitment of co-repressor SMRT by hPRB; assay type: cell-based; conditions: HEK293T, FIGS. 13 and 14
T2 construct: expressed in transfected cells; host or cells: HEK 293T
T2 sequence (P06401 1-933): T1 sequence (P06401 1-933)
Method: as §1, §2, §3

[3] = biological target: T3, hPRB and TIF-2 (Homo sapiens, UniProt P06401); assay: Mammalian two hybrid assay, recruitment of co-activator TIF-2 (TIF-2-Nter, TIF-2-NterRID) by hPRB; assay type: cell-based; conditions: HEK293T; for recruitment of co-activator TIF-2 sequences by hPRB upon ligand binding: TIF-2-Nter and TIF-2-NterRID, FIGS. 15-17; for inhibition of progesterone induced TIF-2 recruitment by hPRB: two hybrid, FIG. 18
T3 construct: expressed in transfected cells; host or cells: HEK 293T
T3 sequence (P06401 1-933): T1 sequence (P06401 1-933)
Method: as §1, §2
Both agonist- and antagonist-bound PR regulate gene transcription with the assistance of transcriptional co-repressors (NCoR, SMRT) or co-activators (namely, TIF-2). To characterize the mechanism by which APRn inactivate hPRB, the capacity of hPRB to recruit transcriptional co-regulators upon APRn binding has been evaluated. With this aim, mammalian two-hybrid assays in HEK293T cells have been performed by using two series of fusion proteins: (i) the VP16 activation domain of herpes simplex virus fused to the entire hPRB and (ii) the GAL4 DNA-binding domain (DBD) fused to the receptor interacting domain (RID) of corepressors (NCoR and SMRT), the GAL4 DBD fused to the 1-867 sequence of the co-activator TIF2 (corresponding to the Nter and RID domains), the GAL4 DBD fused to the 1-623 sequence of TIF2 (corresponding to the Nter domain).
Further, the capacity of hPRB to bind the co-activator TIF-2 was examined. The two-hybrid assays were performed with the TIF-2 sequence encompassing its N-ter region alone (TIF-2-Nter) or the sequence including the N-ter and the RID regions (TIF-2-NterRID).

CC(=O)[C@H]1CC[C@H]2[C@@H]3CC=C4C[C@@H](F)CC[C@]4(C)[C@H]3CC[C@]12C [APR-16, 3β-Fluoropregn-5-en-20-one]
recruitment of co-repressor NCoR by hPRB upon ligand binding [1]: unable to recruit
recruitment of co-repressor SMRT by hPRB upon ligand binding [2]: unable to recruit
recruitment of co-activator TIF-2 sequences by hPRB upon ligand binding [3]: unable to recruit the two TIF-2 sequences
inhibition of progesterone induced TIF-2 recruitment by hPRB [3]: able to inhibit the progesterone induced TIF-2 recruitment
melting point: 166 to 167 °C

CC#C[C@]1(O)CCC2C3CC[C@H]4CCCC[C@]4(C)C3CC[C@@]21C (stereo partly drawn) [APR-42, 17α-(1-Propynyl)-5α-androstan-17β-ol]
melting point: 150 to 151 °C

CC#C[C@]1(O)CCC2C3CC[C@H]4C[C@@H](F)CC[C@]4(C)C3CC[C@@]21C (stereo partly drawn) [APR-43, 3β-Fluoro-17α-(1-propynyl)-5α-androstan-17β-ol]
melting point: 139 to 140 °C

C[C@]12CCC3C(CC=C4C[C@@H](F)CC[C@@H]43)C1CCC2=O (stereo partly drawn) [APR-47, 3β-Fluoro-19-nor-androst-5-en-17-one]
recruitment of co-repressor NCoR by hPRB upon ligand binding [1]: unable to recruit
recruitment of co-repressor SMRT by hPRB upon ligand binding [2]: unable to recruit
recruitment of co-activator TIF-2 sequences by hPRB upon ligand binding [3]: unable to recruit the two TIF-2 sequences
inhibition of progesterone induced TIF-2 recruitment by hPRB [3]: able to inhibit the progesterone induced TIF-2 recruitment
melting point: 102 to 103 °C

CC#C[C@]1(O)CCC2C3CC=C4C[C@@H](F)CC[C@@H]4C3CC[C@@]21C (stereo partly drawn) [APR-51, 3β-Fluoro-17α-(1-propynyl)-19-nor-androst-5-en-17β-ol]
melting point: 72 to 73 °C

CC#C[C@]1(O)CCC2C3CC[C@H]4CCCC[C@@H]4C3CC[C@@]21C (stereo partly drawn) [APR-54, 17α-(1-Propynyl)-19-nor-5-androstan-17β-ol]
recruitment of co-repressor NCoR by hPRB upon ligand binding [1]: unable to recruit
recruitment of co-repressor SMRT by hPRB upon ligand binding [2]: unable to recruit
recruitment of co-activator TIF-2 sequences by hPRB upon ligand binding [3]: unable to recruit the two TIF-2 sequences
inhibition of progesterone induced TIF-2 recruitment by hPRB [3]: able to inhibit the progesterone induced TIF-2 recruitment
